Test results: patent publication US20140161748A1, “METHODS FOR TREATING SUN-EXPOSED SKIN” (UNIVERSITY OF MANITOBA, priority 2011, published 2014)

Experiments:
Fibroblast cells = details: fibroblasts, doses 0, 0.01, 0.1 and 1 μM
Procedure: Fibroblast cells were plated at different densities, and exposed to UVC for various time (0 s, 10 s, 60 s and 360 s), then incubated for another 24 h, 48 h or 72 h (PIT). MTT assay was used to evaluate cell viability.

fibroblasts [1] = test system: fibroblasts
Procedure: (§1) Fibroblasts were exposed to varying intensities of UVB, 0, 20, 40 and 60 mJ/cm^2 and were examined 24, 48 or 72 hours after. […] MMP-1 or matrix metalloproteinase-1 is an enzyme that is involved in the breakdown of the extracellular matrix in normal physiological processes such as embryonic development, reproduction and tissue modeling. It is also responsible for breaking down collagen. proCOL1A1 is one component that makes up a molecule of type 1 collagen, which is found in most connective tissue, including the skin.

proCOL1A1 = details: 0.1 μM; UVB 20 mJ/cm^2; compared to UVB control cells
Procedure: as §1

SKH-1 mice [2] = test system: SKH-1 mice
Procedure: (§2) Ten female SKH-1 mice were obtained from Jackson Laboratory. They were 9 weeks old at the start of the experiment.
(§3) Animals were ordered at 7 weeks of age and half were pretreated with quetiapine (10 mg/kg dissolved in drinking water) for two weeks prior to commencement of UV exposure. The other half were left untreated. Quetiapine was obtained in powder form (batch 1677) from Avlon Works, in Bristol, England, a production site for the pharmaceutical company AstraZeneca. All mice were exposed three times a week for a total of 10 weeks. Exposure intensity was 90 mJ/cm and exposure duration was 7.5 minutes. […] Excessive damage to the skin was not the goal of this study. The lamp used was manufactured by UVP (Upland, Calif., model UVLM-28).
(§4) Animals were free moving in a standard cage, with the light positioned about 30 cm above them. The intensity was measured and animals were not placed under the light until it had reached a stable value.
Skin samples were taken from the dorsal region (along the midline of the mouse close to the hindlimbs) of each mouse using a 6 mm dermal biopsy punch.
Three histological stains were used. Each stain was prepared by the histology technician in the Department of Human Anatomy and Cell Science at the University of Manitoba. Hematoxylin and Eosin (H&E) was used to examine skin structure. Van Gieson stain was used to examine collagen structure, and Verhoeff-Van Gieson stain was used to examine both collagen and elastin fibres.
Skin samples from all animals were embedded in paraffin wax blocks using standard techniques and sectioned at a thickness of 5 microns.
Staining with Hematoxylin and Eosin.
Staining with Van Gieson.
Staining with Verhoeff-Van Gieson.

fibroblasts [3] = test system: fibroblasts; remark: listed apart in the source
Procedure: Cultures were examined after 24, 48, and 72 hours after treatment with 0, 0.01, 0.1, 10, or 100 μM of Quetiapine.

SKH-1 mice [4] = details: 10 mg/kg in drinking water; after 2 weeks of UV treatment; vs untreated mice
Procedure: as §2, §3, §4

fibroblasts [5] = details: UVB and Quetiapine for 48 hours
[6] = 10 mg/kg in drinking water, UV three times a week for 10 weeks

OCCOCCN1CCN(C2=Nc3ccccc3Sc3ccccc32)CC1 [Quetiapine, 2-(2-(4-dibenzo[b,f][1,4]thiazepine-11-yl-1-piperazinyl)ethoxy)ethanol]
prevention of UVC induced cytotoxicity (Fibroblast cells): did not prevent UVC induced cytotoxicity regardless of the dose given | alleviation of UVB induced cell viability (MTT assay) (fibroblasts [1]): not to alleviate UVB induced cell viability | proCOL1A1 content in cell lysates (proCOL1A1): significantly increase | collagen appearance (Van Gieson) (SKH-1 mice [2]; [6]): darker staining and uniform, intact appearance of collagen bands | elastic fibre number and structure (Verhoeff-Van Gieson) (SKH-1 mice [2]; [6]): better preservation of elastic fibre number and structure | epidermis thickness (Hematoxylin and Eosin) (SKH-1 mice [2]; [6]): increased thickness in the untreated group compared to control and quetiapine treated animals | UV induced collagen breakdown and formation of abnormal elastic fibres (summary) (SKH-1 mice [2]; chronically UV exposed mice): appears to prevent UV induced collagen breakdown and the formation of abnormal elastic fibres | cytotoxic effect on fibroblasts (fibroblasts [3]; fibroblast cultures examined 24, 48 and 72 hours after treatment): cytotoxic effect on fibroblasts at high concentrations | survival at 1, 10, and 100 μM (fibroblasts [3]; fibroblasts, 1, 10 and 100 μM): decreased further | concentration at which survival started becoming affected (fibroblasts [3]; fibroblasts, 24, 48, 72 hours, 0-100 μM): 100 nM | skin irritation (SKH-1 mice [4]): less irritation | skin redness (SKH-1 mice [4]): less redness | effect on cell death (PI-Hoechst 33342 staining) (fibroblasts [5]): no effect on cell death
